In the data set the test system is Medicago sativa cells. As to conditions: 200 ppm (highest concentration), after two weeks of continuous growth in liquid medium.

Method: To determine the IC50 of KAuCl4, the filter sterilized stock solution of KAuCl4 (prepared in deionized water) was added at different concentrations (10-200 ppm) to 20 mL culture having a cell density of 20,000 cells/mL and incubated on the shaker for 2 weeks. Culture aliquots (1 mL) were collected at an interval of 48 h, spun at 2000 rpm for 10 min, stained with phosphate buffered Trypan Blue, and dead cells were counted using a haemocytometer. Percentage of cell death was determined from the total cell number.

`[Cl][Au-]([Cl])([Cl])[Cl].[K+]` [KAuCl4, potassium gold chloride]: the “cells eliminated from the culture (cell death)” value was found to be 25%.

These data come from patent US12297476B2, “Metallic nanoparticles and methods of making and using the same” (Saint Joseph's University, priority 2020, dated 2025).
